Experimental data taken from US10369138B2, “Monobactam organic compounds for the treatment of bacterial infections” (Novartis AG, priority 2014, dated 2019).
Values after ≈ are worked out from the molar mass of the structure shown. Read-outs that look alike come from different tables or passages of the source.

Assays:
[1] = system: E. coli containing KPC-2; test: MIC by broth microdilution, E. coli containing KPC-2 (Ec KPC2 Iso); type: cell-based; conditions: Escherichia coli, read-out: Ec KPC2 Iso (MIC), E. coli containing KPC-2 (carbapenemase from Klebsiella pneumoniae)
Procedure: (§1) Bacterial isolates were cultivated from −70° C. frozen stocks by two consecutive overnight passages at 35° C. in ambient air on 5% blood agar (Remel, Lenexa, Kans.). Quality control and P. aeruginosa ATCC 27853) is from the American Type Culture Collection (ATCC; Rockville, Md.) and PAO1 was received from Dr. K. Poole.
Strain NB27273 (BW25113 pspB::Km^r) was obtained from the Keio transposon insertion collection. The strain has the pspB gene replaced by a kanamycin resistance marker (BW25113 pspB::Km^r). This strain was cured of the transposon in pspB via FLP recombinase using published methodology. The resulting strain, BW25113 pspB, was used as a host for multicopy vectors expressing key β-lactamases. Multicopy plasmids directing constitutive expression of β-lactamases were established as follows: Synthetic, codon optimized genes encoding E. coli KPC2 and SHV12 β-lactamases were made by DNA2.0 (Palo Alto, Calif.). Each of the synthetic fragments were designed to contain NotI and NcoI restriction sites at their termini, allowing ligation into a NotI/NcoI digested pET28a(+) derivative for protein expression. […] The codon optimized nucleotide sequences and relevant primer recognition information is shown below:
The PCR products were then digested with XhoI and EcoRI and ligated into similarly digested plasmid pAH63-pstS(BlaP). Plasmid pAH63-pstS(BlaP) is a derivative of plasmid pAH63 (J Bacteriol: 183(21): 6384-6393) made by cloning the TEM-1 (bla) promoter and signal peptide encoding region from plasmid pBAD (J Bacteriol. 1995 July 177(14):4121-30) into plasmid pAH63. This fragment was PCR amplified from pBAD using primer pair E192 (ttca[…]) (SEQ ID NO:13) and E194 ([…]) (SEQ ID NO:14), digested with PstI and BamHI and inserted into similarly digested plasmid pAH63. Therefore, expression of β-lactamases from pAH63-pstS(BlaP) based constructs is constitutive and the signal sequence is provided to direct these proteins to the periplasm. Plasmid pAH63 based vectors are used for insertion into the genome in single copy, however, to provide higher expression levels to allow more sensitive detection of the susceptibility of compounds to the β-lactamases, the expression inserts contained in these vectors were moved to the replicative multicopy vector pBAD-Kan (J Bacteriol. 1995 July 177(14):4121-30). To accomplish this, the inserts encompassing the β-lactamase genes, with the associated TEM promoter and signal sequences, were PCR amplified from their corresponding vectors using primer E269 (ccg[…]) (SEQ ID NO:15) and E202 (aatc[…]) (SEQ ID NO:16) for the KPC2 construct and E204 (aatc[…]) (SEQ ID NO:17) for the SHV12 construct. These fragments were then digested with XbaI and EcoRI, and each was inserted into pBAD18-kan that had been digested with the same enzymes to generate a pair of multicopy vectors expressing KPC2 and SHV12 respectively. These vectors were transformed into BW25113 pspB to generate strains NB27273-CDY0033 (expressing KPC2) and NB27273-CDY0030 (expressing SHV12). The pBAD18-kan vector also contains the TEM promoter region and signal sequence, (but lacks any intact β-lactamase genes) and was transformed into BW25113 pspB using standard protocols to generate the control strain NB27273-CDY0026. Expression of the β-lactamases was confirmed by verifying decreased susceptibility to example test antibiotics that are known substrates of KPC2 or SHV12. Susceptibility Testing
Minimal Inhibitory Concentrations (MICs) were determined by the broth microdilution method in accordance with Clinical and Laboratories Institute (CLSI) guidelines. In brief, fresh overnight bacterial cultures were suspended in sterile saline, and adjusted to a 0.5 McFarland turbidity standard. Bacterial suspensions were then diluted in cation adjusted Mueller-Hinton Broth (MHB II; BBL) to yield a final inoculum of approximately 5×10^5 colony-forming units (CFU)/mL. […]

[2] = system: E. coli strain 25922; test: MIC by broth microdilution, E. coli strain 25922; type: cell-based
Procedure: as §1
Minimal Inhibitory Concentrations (MICs) were determined by the broth microdilution method in accordance with Clinical and Laboratories Institute (CLSI) guidelines. In brief, fresh overnight bacterial cultures were suspended in sterile saline, and adjusted to a 0.5 McFarland turbidity standard. Bacterial suspensions were then diluted in cation adjusted Mueller-Hinton Broth (MHB II; BBL) to yield a final inoculum of approximately 5×10^5 colony-forming units (CFU)/mL. A master plate of antibiotics was prepared at a concentration equivalent to hundred-fold the highest desired final concentration in 100% dimethyl sulfoxide (DMSO). The master antibiotic plate was then diluted by serial twofold dilution with a multichannel pipette. The resulting dilution series of compounds were diluted 1:10 with sterile water leading to a 10% DMSO final concentration. A volume of 10 μL of the drug dilution series was transferred to 96-well assay plates. Assay plates were inoculated with 90 μL of bacterial suspensions and incubated at 35-37° C. for 20 hrs. The assay plates were read using a microtiter plate reader (Molecular Devices) at 600 nm as well as by visual observation with a reading mirror. The lowest concentration of the compound that prevented visible growth was recorded as the MIC. Performance of the assay was monitored by testing aztreonam against laboratory quality control strains in accordance with guidelines of the CLSI.

[3] = Escherichia coli, 25922, E. coli strain 25922, read-out: Ec 25922 (MIC)

| Compound | MIC [1] | MIC [2, 3] | MIC ([2]; Escherichia coli, 25922, read-out: Ec 25922 (MIC)) |
| --- | --- | --- | --- |
| N=C(NCc1cnn(C[C@@H]2[C@H](NC(=O)/C(=N\OC3(C(=O)O)CC3)c3csc(N)n3)C(=O)N2S(=O)(=O)O)n1)N[C@@H]1CCNC1 (stereo in doubt) [Example 142, 1-(((Z)-(1-(2-aminothiazol-4-yl)-2-oxo-2-(((3S,4R)-2-oxo-4-((4-((3-(®-pyrrolidin-3-yl)guanidino)methyl)-2H-1,2,3-triazol-2-yl)methyl)-1-sulfoazetidin-3-yl)amino)ethylidene)amino)oxy)cyclopropanecarboxylic acid] | 0.25 µg/mL (≈ 0.39 µM) | 0.5 µg/mL (≈ 0.78 µM) | – |
| CC(C)(O/N=C(\C(=O)N[C@@H]1C(=O)N(S(=O)(=O)O)[C@@H]1CN1CCOC1=O)c1csc(N)n1)C(=O)O [Example 2, 2-(((Z)-(1-(2-aminothiazol-4-yl)-2-oxo-2-(((3S,4R)-2-oxo-4-((2-oxooxazolidin-3-yl)methyl)-1-sulfoazetidin-3-yl)amino)ethylidene)amino)oxy)-2-methylpropanoic acid] | 0.5 µg/mL (≈ 0.961 µM) | 1 µg/mL (≈ 1.92 µM) | – |
| CC(C)(O/N=C(\C(=O)N[C@@H]1C(=O)N(S(=O)(=O)O)[C@@H]1CN1CCNC1=O)c1csc(N)n1)C(=O)O [Example 3, 2-(((Z)-(1-(2-aminothiazol-4-yl)-2-oxo-2-(((3S,4R)-2-oxo-4-((2-oxoimidazolidin-1-yl)methyl)-1-sulfoazetidin-3-yl)amino)ethylidene)amino)oxy)-2-methylpropanoic acid] | 1 µg/mL (≈ 1.92 µM) | 2 µg/mL (≈ 3.85 µM) | – |
| CC(C)(O/N=C(\C(=O)N[C@@H]1C(=O)N(S(=O)(=O)O)[C@@H]1Cn1nnc(CNC(=N)N)n1)c1csc(N)n1)C(=O)O [Example 5, 2-(((Z)-(1-(2-aminothiazol-4-yl)-2-(((2R,3S)-2-((5-(guanidinomethyl)-2H-tetrazol-2-yl)methyl)-4-oxo-1-sulfoazetidin-3-yl)amino)-2-oxoethylidene)amino)oxy)-2-methylpropanoic acid] | 4 µg/mL (≈ 6.96 µM) | 1 µg/mL (≈ 1.74 µM) | – |
| CC(C)(O/N=C(\C(=O)N[C@@H]1C(=O)N(S(=O)(=O)O)[C@@H]1Cn1nnnc1CN)c1csc(N)n1)C(=O)O [Example 6, 2-(((Z)-(2-(((2R,3S)-2-((5-(aminomethyl)-1H-tetrazol-1-yl)methyl)-4-oxo-1-sulfoazetidin-3-yl)amino)-1-(2-aminothiazol-4-yl)-2-oxoethylidene)amino)oxy)-2-methylpropanoic acid] | 1 µg/mL (≈ 1.88 µM) | 4 µg/mL (≈ 7.51 µM) | – |
| Cc1nnnn1C[C@@H]1[C@H](NC(=O)/C(=N\OC(C)(C)C(=O)O)c2csc(N)n2)C(=O)N1S(=O)(=O)O [Example 8, 2-(((Z)-(1-(2-aminothiazol-4-yl)-2-(((2R,3S)-2-((5-methyl-1H-tetrazol-1-yl)methyl)-4-oxo-1-sulfoazetidin-3-yl)amino)-2-oxoethylidene)amino)oxy)-2-methylpropanoic acid] | 2 µg/mL (≈ 3.86 µM) | 2 µg/mL (≈ 3.86 µM) | – |
| CC(C)(O/N=C(\C(=O)N[C@@H]1C(=O)N(S(=O)(=O)O)[C@@H]1Cn1cncn1)c1csc(N)n1)C(=O)O [Example 9, 2-(((Z)-(2-(((2R,3S)-2-((1H-1,2,4-triazol-1-yl)methyl)-4-oxo-1-sulfoazetidin-3-yl)amino)-1-(2-aminothiazol-4-yl)-2-oxoethylidene)amino)oxy)-2-methylpropanoic acid] | 1 µg/mL (≈ 1.99 µM) | 1 µg/mL (≈ 1.99 µM) | – |
| CC(C)(O/N=C(\C(=O)N[C@@H]1C(=O)N(S(=O)(=O)O)[C@@H]1Cn1cnc(CN)n1)c1csc(N)n1)C(=O)O [Example 10, 2-(((Z)-(2-(((2R,3S)-2-((3-(aminomethyl)-1H-1,2,4-triazol-1-yl)methyl)-4-oxo-1-sulfoazetidin-3-yl)amino)-1-(2-aminothiazol-4-yl)-2-oxoethylidene)amino)oxy)-2-methylpropanoic acid] | 11 µg/mL (≈ 20.7 µM) | 4 µg/mL (≈ 7.53 µM) | – |
| CC(C)(O/N=C(\C(=O)N[C@@H]1C(=O)N(S(=O)(=O)O)[C@@H]1Cn1cnc(CNC(=N)N)n1)c1csc(N)n1)C(=O)O [Example 11, 2-(((Z)-(1-(2-aminothiazol-4-yl)-2-(((2R,3S)-2-((3-(guanidinomethyl)-1H-1,2,4-triazol-1-yl)methyl)-4-oxo-1-sulfoazetidin-3-yl)amino)-2-oxoethylidene)amino)oxy)-2-methylpropanoic acid] | 4 µg/mL (≈ 6.97 µM) | 4 µg/mL (≈ 6.97 µM) | – |
| CC(C)(O/N=C(\C(=O)N[C@@H]1C(=O)N(S(=O)(=O)O)[C@@H]1Cn1ncnc1CN)c1csc(N)n1)C(=O)O [Example 12, 2-(((Z)-(2-(((2R,3S)-2-((5-(aminomethyl)-1H-1,2,4-triazol-1-yl)methyl)-4-oxo-1-sulfoazetidin-3-yl)amino)-1-(2-aminothiazol-4-yl)-2-oxoethylidene)amino)oxy)-2-methylpropanoic acid] | 4 µg/mL (≈ 7.53 µM) | 4 µg/mL (≈ 7.53 µM) | – |
| CC(C)(O/N=C(\C(=O)N[C@@H]1C(=O)N(S(=O)(=O)O)[C@@H]1Cn1ncnc1CNC(=N)N)c1csc(N)n1)C(=O)O [Example 13, 2-(((Z)-(1-(2-aminothiazol-4-yl)-2-(((2R,3S)-2-((5-(guanidinomethyl)-1H-1,2,4-triazol-1-yl)methyl)-4-oxo-1-sulfoazetidin-3-yl)amino)-2-oxoethylidene)amino)oxy)-2-methylpropanoic acid] | 32 µg/mL (≈ 55.8 µM) | 16 µg/mL (≈ 27.9 µM) | – |
| CC(C)(O/N=C(\C(=O)N[C@@H]1C(=O)N(S(=O)(=O)O)[C@@H]1CN1CCCCC1=O)c1csc(N)n1)C(=O)O [Example 14, 2-(((Z)-(1-(2-aminothiazol-4-yl)-2-oxo-2-(((3S,4R)-2-oxo-4-((2-oxopiperidin-1-yl)methyl)-1-sulfoazetidin-3-yl)amino)ethylidene)amino)oxy)-2-methylpropanoic acid] | 8 µg/mL (≈ 15 µM) | 16 µg/mL (≈ 30 µM) | – |
| Nc1nc(/C(=N/OC2(C(=O)O)CC2)C(=O)N[C@@H]2C(=O)N(S(=O)(=O)O)[C@@H]2Cn2ncc(CNC3CNC3)n2)cs1 [Example 103, 1-(((Z)-(1-(2-aminothiazol-4-yl)-2-(((2R,3S)-2-((4-((azetidin-3-ylamino)methyl)-2H-1,2,3-triazol-2-yl)methyl)-4-oxo-1-sulfoazetidin-3-yl)amino)-2-oxoethylidene)amino)oxy)cyclopropanecarboxylic acid] | – | 0.25 µg/mL (≈ 0.428 µM) | – |
| NCC1CN(C[C@@H]2[C@H](NC(=O)/C(=N\OC3(C(=O)O)CC3)c3csc(N)n3)C(=O)N2S(=O)(=O)O)C(=O)N1 (stereo partly drawn) [Example 122, 1-(((Z)-(2-(((2R,3S)-2-((4-(aminomethyl)-2-oxoimidazolidin-1-yl)methyl)-4-oxo-1-sulfoazetidin-3-yl)amino)-1-(2-aminothiazol-4-yl)-2-oxoethylidene)amino)oxy)cyclopropanecarboxylic acid] | – | ≤ 0.06 µg/mL | 0.125 µg/mL (≈ 0.229 µM) |
